How the values were obtained:
[1] = test system: mouse; details: Subchronic oral toxicity in rodents, b6c3f1, Feed, dose end: 91 day, group: systemic
[2] = test system: rat; details: Subchronic oral toxicity in rodents, wistar, Feed, dose end: 3 month
[3] = test system: rat; details: Prenatal developmental toxicity study, wistar, Oral, Gavage/Intubation, dose end: 19 GD
[4] = test system: rabbit; details: Prenatal developmental toxicity study, himalayan, Oral, Gavage/Intubation, dose end: 28 GD
[5] = test system: rat; details: Combined chronic toxicity/carcinogenicity; wistar; Oral; Feed; dose end: 104 week; group: systemic; systemic / in life observation / body weight / body weight + systemic / in life observation / body weight / body weight gain + systemic / …
[6] = test system: rat; details: Multigenerational reproductive toxicity study, wistar (Chbb = THOM-SPF), Oral, Feed, dose end: 1 generation
[7] = test system: dog; details: Subchronic oral toxicity in nonrodent, beagle, Feed, dose end: 52 week, group: systemic, systemic / clinical chemistry / albumin / albumin + systemic / clinical chemistry / cholesterol / cholesterol + systemic / clinical …
[8] = test system: rat; details: Subchronic dermal toxicity, sprague dawley, Topical, dose end: 13 week, group: systemic, systemic / in life observation / body weight / body weight + systemic / in life observation / food consumption / food consumption + systemic…
[9] = test system: rabbit; details: Prenatal developmental toxicity study, new zealand white, Oral, Gavage/Intubation, dose end: 18 GD
[10] = test system: rat; details: Prenatal developmental toxicity study, sprague dawley, Oral, Gavage/Intubation, dose end: 15 GD
[11] = test system: rat; details: Prenatal developmental toxicity study; wistar; Oral; Feed; dose end: 21 GD; group: maternal; systemic / in life observation / food consumption / food consumption + systemic / in life observation / water consumption / water …
[12] = test system: dog; details: Chronic toxicity, beagle, Oral, Capsule, dose end: 12 month, group: systemic
[13] = test system: rat; details: Subchronic oral toxicity in rodents, wistar, Feed, dose end: 90 day, group: systemic
[14] = test system: dog; details: Chronic toxicity; beagle; Oral; Capsule; dose end: 52 week; group: systemic; systemic / in life observation / body weight / body weight + systemic / in life observation / body weight / body weight gain + systemic / …
[15] = systemic / clinical chemistry / triglycerides / triglycerides + systemic / clinical chemistry / urea nitrogen / urea + systemic / in life …
[16] = systemic / pathology microscopic / stomach / erosion
[17] = group: cholinesterase, cholinesterase / cholinesterase / cholinesterase / cholinesterase (che)
[18] = group: systemic, systemic / in life observation / body weight / body weight + systemic / in life observation / body weight / body weight gain + systemic / in…
[19] = group: developmental, developmental / developmental malformation / bone / cervical + developmental / developmental malformation / kidney / dilated renal pelvis
[20] = group: maternal, systemic / in life observation / body weight / body weight + systemic / in life observation / body weight / body weight gain + systemic / in…
[21] = group: developmental, developmental / developmental malformation / bone / absent
[22] = group: maternal, reproductive / reproductive performance / postimplantation loss / postimplantation loss + reproductive / reproductive performance / …
[23] = group: maternal, systemic / in life observation / body weight / body weight gain + systemic / in life observation / food consumption / food consumption + …
[24] = group: offspring, systemic / in life observation / body weight / offspring (pup) weight
[25] = group: parental, systemic / in life observation / body weight / body weight + systemic / in life observation / body weight / body weight gain + systemic / in…
[26] = group: developmental, developmental / developmental malformation / general / [other]
[27] = group: maternal, reproductive / reproductive performance / postimplantation loss / postimplantation loss + systemic / in life observation / food consumption…
[28] = group: developmental, developmental / developmental malformation / bone / fused
[29] = group: developmental, developmental / developmental malformation / bone / fused + developmental / developmental malformation / bone / [other] + developmental / …
[30] = group: maternal, systemic / in life observation / body weight / body weight gain + systemic / in life observation / clinical signs / salivation + …
[31] = systemic / in life observation / clinical signs / abnormal gait + systemic / in life observation / clinical signs / ataxia + systemic / in …
[32] = systemic / in life observation / clinical signs / abnormal gait + systemic / in life observation / clinical signs / convulsions
[33] = systemic / in life observation / body weight / body weight gain + systemic / in life observation / food consumption / food consumption + …

COC(=O)N(OC)c1ccccc1COc1ccn(-c2ccc(Cl)cc2)n1 [Pyraclostrobin]
LOAEL [1, 15]: 30.4 mg/kg/day
NOAEL [1, 15]: 9.2 mg/kg/day
LEL [1, 16]: 12.9 mg/kg/day
NEL [1, 16]: < 12.9 mg/kg/day
LEL [2, 17]: 79.7 mg/kg/day
LOAEL [2, 17]: > 119 mg/kg/day
NEL [2, 17]: 40.8 mg/kg/day
NOAEL [2, 17]: ≥ 119 mg/kg/day
LOAEL [2, 18]: 34.7 mg/kg/day
NEL [2, 18]: 3.5 mg/kg/day
NOAEL [2, 18]: 10.7 mg/kg/day
LEL ([2]; group: systemic, systemic / pathology microscopic / spleen / histiocytosis): 10.7 mg/kg/day
LEL [3, 19]: 50 mg/kg/day
LOAEL [3, 19]: 50 mg/kg/day
NEL [3, 19]: 25 mg/kg/day
NOAEL [3, 19]: 25 mg/kg/day
LEL [3, 20]: 25 mg/kg/day
LOAEL [3, 20]: 25 mg/kg/day
NEL [3, 20]: 10 mg/kg/day
NOAEL [3, 20]: 10 mg/kg/day
LEL [4, 21]: 20 mg/kg/day
LOAEL [4, 21]: > 20 mg/kg/day
NEL [4, 21]: 10 mg/kg/day
NOAEL [4, 21]: ≥ 20 mg/kg/day
LOAEL [4, 22]: 10 mg/kg/day
NOAEL [4, 22]: 5 mg/kg/day
LEL [4, 23]: 5 mg/kg/day
NEL [4, 23]: < 5 mg/kg/day
LEL [5]: 9.2 mg/kg/day
LOAEL [5]: 9.2 mg/kg/day
NEL [5]: 3.4 mg/kg/day
NOAEL [5]: 3.4 mg/kg/day
LEL [6, 24]: 20.5 mg/kg/day
LOAEL [6, 24]: 20.5 mg/kg/day
NEL [6, 24]: < 20.5 mg/kg/day
NOAEL [6, 24]: < 20.5 mg/kg/day
LOAEL ([6]; group: parental, systemic / in life observation / body weight / body weight + systemic / in life observation / body weight / body weight gain): 39.9 mg/kg/day
LEL [6, 25]: 39.9 mg/kg/day
NEL [6, 25]: 20.5 mg/kg/day
NOAEL [6, 25]: 20.5 mg/kg/day
LEL [7]: 10.8 mg/kg/day
LOAEL [7]: 10.8 mg/kg/day
NEL [7]: 5.4 mg/kg/day
NOAEL [7]: 5.4 mg/kg/day

[O-][n+]1ccccc1[S-].[O-][n+]1ccccc1[S-].[Zn+2] [Zinc pyrithione]
LEL [8]: 1000 mg/kg/day
LOAEL [8]: 1000 mg/kg/day
NEL [8]: 100 mg/kg/day
NOAEL [8]: 100 mg/kg/day
LEL [9, 26]: 3 mg/kg/day
LOAEL [9, 26]: > 3 mg/kg/day
NEL [9, 26]: 1.5 mg/kg/day
NOAEL [9, 26]: ≥ 3 mg/kg/day
LEL [9, 27]: 1.5 mg/kg/day
LOAEL [9, 27]: 1.5 mg/kg/day
NEL [9, 27]: 0.5 mg/kg/day
NOAEL [9, 27]: 0.5 mg/kg/day
LEL [10, 28]: 3 mg/kg/day
LOAEL [10, 28]: 3 mg/kg/day
NEL [10, 29]: 0.75 mg/kg/day
NOAEL [10, 29]: 0.75 mg/kg/day
LOAEL ([10]; group: maternal, systemic / in life observation / body weight / body weight gain + systemic / in life observation / clinical signs / salivation): 3 mg/kg/day
LEL [10, 30]: 3 mg/kg/day
NEL [10, 30]: 0.75 mg/kg/day
NOAEL [10, 30]: 0.75 mg/kg/day

OC[C@H]1O[C@@H]2O[C@H]3[C@H](O)[C@@H](O)[C@@H](O[C@H]4[C@H](O)[C@@H](O)[C@@H](O[C@H]5[C@H](O)[C@@H](O)[C@@H](O[C@H]6[C@H](O)[C@@H](O)[C@@H](O[C@H]7[C@H](O)[C@@H](O)[C@@H](O[C@H]1[C@H](O)[C@H]2O)O[C@@H]7CO)O[C@@H]6CO)O[C@@H]5CO)O[C@@H]4CO)O[C@@H]3CO [alpha-Cyclodextrin]
LEL [11]: 13.2 mg/kg/day
LOAEL [11]: > 13.2 mg/kg/day
NEL [11]: 6.5 mg/kg/day
NOAEL [11]: ≥ 13.2 mg/kg/day

CC1(C)[C@H](/C=C(\Cl)C(F)(F)F)[C@@H]1C(=O)O[C@@H](C#N)c1cccc(Oc2ccccc2)c1 [lambda-Cyhalothrin]
NEL [12, 31]: 0.1 mg/kg/day
NOAEL [12, 31]: 0.1 mg/kg/day
LEL [12, 32]: 0.5 mg/kg/day
LOAEL [12, 32]: 0.5 mg/kg/day
LEL ([13]; systemic / clinical chemistry / aminopyrine-n-demethylase / aminopyrine-n-demethylase + systemic / organ weight / liver / absolute): 2.5 mg/kg/day
LOAEL [13, 33]: 12.5 mg/kg/day
NEL [13, 33]: 0.5 mg/kg/day
NOAEL [13, 33]: 2.5 mg/kg/day

CC(C)[C@@H](Nc1ccc(C(F)(F)F)cc1Cl)C(=O)OC(C#N)c1cccc(Oc2ccccc2)c1 (stereo not given in full) [tau-Fluvalinate]
LEL [14]: 12 mg/kg/day
LOAEL [14]: 12 mg/kg/day
NEL [14]: 3 mg/kg/day
NOAEL [14]: 3 mg/kg/day
